# According to patent US20220127297A1, “Novel Antibacterial 3"-Derivatives Of 4,6-Disubstituted 2,5-Dideoxystreptamine Aminoglycoside Antibiotics” (AGILeBiotics B.V., priority 2018, published 2022):
# System: K. pneumoniae DSM 26371
# Test: MIC 50, broth micro-dilution, DSM strains
# Assay type: cell-based, Klebsiella pneumoniae
# Conditions: Klebsiella pneumoniae, DSM26371, K. pneumoniae DSM 26371; read-out: MIC 50
# Excerpt: 3.2 Against Selected Bacteria of the ESKAPE Panel and Enterococcus faecalis (DSM Strains)
# Tested reference compounds. Amikacin sulfate (Cat. No. 01693, Chem-Impex), Gentamicin sulfate (Cat. No. G4918, Sigma Aldrich).
# Microbial strains. Enterococcus faecalis DSM 2570, Klebsiella pneumoniae DSM 26371, Acinetobacter baumannii DSM 105126, Enterobacter cloacae 3MRGN (clinical bronchial aspirate isolate).
# Culture media and equipment. BBL™ Mueller Hinton Broth 2 (Lot. BCBW1143, Cat. No. 70192, Sigma); Trypcase Soy Blood-agar plates (Cat. No. 43001, Biomérieux); Cryoinstant (contains 15% glycerol; Cat. No. 822070ZA, VWR International); GasPak™ EZ Standard Incubation Container (Cat. No. 260671, Becton Dickinson); GasPak™ EZ Campy Container System Sachets (Cat. No. 260680, Becton Dickinson); 96-well deep well plate, 1 mL (Cat. No. 0030506.200, Eppendorf); Plate lid (Cat. No. 0030131.525, Eppendorf); 96-well plate, F-bottom (Cat. No. 260860, Nunc); Incubator (Sartorius Certomat BS-1); Laminar flow (Heraeus HS12); UV/VIS meter (Perkin Elmer Lambda Bio+); Platereader (Tecan Infinite M200 Pro).
# Compound preparation. Compounds were prepared in MH2 media at a concentration of 5 mM and stored at 4° C. For testing, solutions of 128 μM were prepared in MH2, for tests against E. faecalis a solution of 512 μM was prepared. Out of these working solutions, 400 μL was transferred to wells in the first column of 96-well deep well plates. Each compound was transferred in triplicate. Plates were previously filled with 200 μL of MH2 media in all wells except for the wells in the first column. After compound and antibiotic addition, the compounds were serial two-fold diluted by transferring 200 μL from the first to the second column, then from the second to the third column and so on. Finally, 200 μL was removed from the last column.
# Inoculum preparation. Microorganisms used were all revived from 15% glycerol storage in Croinstant tubes at −28° C. by plating them on blood agar plates. A. baumanni, and E. cloacae were grown aerobically at 37° C., E. faecalis was grown microaerophilically at 37° C., and K. pneumoniae was grown aerobically at 37° C. Plates were stored at 4° C. for up to two weeks, after which new plates were prepared from −28° C. A single colony was inoculated in MH2 media and grown at 37° C. and 200 rpm to an optical density (measured by UV/Vis spectroscopy) of 0.6-0.8 at 600 nm. Out of these suspensions, actual inoculums were prepared by diluting them to an optical density of 0.1 in MH2 media. From these inoculums, 200 μL was transferred to each well, resulting in a final compound concentration range of 64 μM-31.3 nM for, K. pneumoniae, A. baumanni, and E. cloacae, and 256 μM-125 nM for E. faecalis. Plates inoculated with E. faecalis were placed inside a GasPak™ Container System with GasPak™ Campy Container System sachets. All plates were incubated at 200 rpm for 18 h under the microorganism culturing conditions mentioned above.
# MIC determination. After 18 h of growth, 200 μL was transferred to a 96-well F-bottom plate. The optical density was determined by a plate reader at 600 nm, with 10 s shaking before reading. Triplicate measurements were averaged, and a growth curve was plotted in Excel. The first column in which the growth reached half the value of maximum growth was determined as the MIC50 value for that particular compound.
# MIC50. The MIC50 of a compound was assigned at which the bacterial growth reached half the value of maximum growth.
row,SMILES,MIC50 [µM]
1,"N=C(NC[C@@H]1CCCN1)NC1[C@@H](O)C(OC2[C@@H](F)[C@H](O[C@H]3OC(CN)[C@@H](O)CC3N)C(N)C[C@H]2NC(=O)[C@@H](O)CCN)O[C@H](CO)[C@H]1O (stereo partly drawn) [ABX5026, Tobra-AHB-F-Gua (S) pyrrolidine-2-yl-methyl]",0.125
2,"N=C(NCC1CC1)NC1[C@@H](O)C(OC2[C@@H](F)[C@H](O[C@H]3OC(CN)[C@@H](O)CC3N)C(N)C[C@H]2NC(=O)[C@@H](O)CCN)O[C@H](CO)[C@H]1O (some centres unmarked) [ABX5027, Tobra-AHB-F-Gua cyclopropylmethyl]",0.125
3,"N=C(NCCO)NC1[C@@H](O)C(OC2[C@@H](F)[C@H](O[C@H]3OC(CN)[C@@H](O)CC3N)C(N)C[C@H]2NC(=O)[C@@H](O)CCN)O[C@H](CO)[C@H]1O (some centres unmarked) [ABX5029, Tobra-AHB-F-Gua 2-hydroxy-ethyl]",0.125 to 0.25
4,"N=C(NCCCN)NC1[C@@H](O)C(OC2[C@@H](F)[C@H](O[C@H]3OC(CN)[C@@H](O)CC3N)C(N)C[C@H]2NC(=O)[C@@H](O)CCN)O[C@H](CO)[C@H]1O (some centres unmarked) [ABX5030, Tobra-AHB-F-Gua-3-amino-propyl]",0.125
5,"CNCCNC(=N)NC1[C@@H](O)C(OC2[C@@H](F)[C@H](O[C@H]3OC(CN)[C@@H](O)CC3N)C(N)C[C@H]2NC(=O)[C@@H](O)CCN)O[C@H](CO)[C@H]1O (some centres unmarked) [ABX5038, Tobra-AHB-F-Gua 2-(methylamino)ethyl]",0.5
6,"N=C(NC[C@@H]1CCNC1)NC1[C@@H](O)C(OC2[C@@H](F)[C@H](O[C@H]3OC(CN)[C@@H](O)CC3N)C(N)C[C@H]2NC(=O)[C@@H](O)CCN)O[C@H](CO)[C@H]1O (stereo partly drawn) [ABX5039, Tobra-AHB-F-Gua (R) pyrrolidine-3-ylmethyl]",0.5
7,"N=C(NC[C@@H]1CNCCO1)NC1[C@@H](O)C(OC2[C@@H](F)[C@H](O[C@H]3OC(CN)[C@@H](O)CC3N)C(N)C[C@H]2NC(=O)[C@@H](O)CCN)O[C@H](CO)[C@H]1O (stereo partly drawn) [ABX5040, Tobra-AHB-F-Gua (S) morpholin-2-yl methyl]",0.5
8,"N=C(NCCCO)NC1[C@@H](O)C(OC2[C@@H](F)[C@H](O[C@H]3OC(CN)[C@@H](O)CC3N)C(N)C[C@H]2NC(=O)[C@@H](O)CCN)O[C@H](CO)[C@H]1O (some centres unmarked) [ABX5041, Tobra-AHB-F-Gua 3-hydroxy-propyl]",0.5
9,"N=C(NC[C@H]1CCNC1)NC1[C@@H](O)C(OC2[C@@H](F)[C@H](O[C@H]3OC(CN)[C@@H](O)CC3N)C(N)C[C@H]2NC(=O)[C@@H](O)CCN)O[C@H](CO)[C@H]1O (stereo partly drawn) [ABX5042, Tobra-AHB-F-Gua (S) pyrrolidine-3-ylmethyl]",0.5
10,"N=C(NC[C@H]1CNCCO1)NC1[C@@H](O)C(OC2[C@@H](F)[C@H](O[C@H]3OC(CN)[C@@H](O)CC3N)C(N)C[C@H]2NC(=O)[C@@H](O)CCN)O[C@H](CO)[C@H]1O (stereo partly drawn) [ABX5043, Tobra-AHB-F-Gua (R) morpholin-2-yl methyl]",0.5
11,"N=C(N)NC1[C@@H](O)C(OC2[C@@H](F)[C@H](O[C@H]3OC(CNCCO)[C@@H](O)CC3N)C(N)C[C@H]2NC(=O)[C@@H](O)CCN)O[C@H](CO)[C@H]1O (some centres unmarked) [ABX5045, 6N-2-hydroxy-ethyl-Tobra-AHB-F-Gua]",0.5
12,"N=C(NCC1CCCO1)NC1[C@@H](O)C(OC2[C@@H](F)[C@H](O[C@H]3OC(CN)[C@@H](O)CC3N)C(N)C[C@H]2NC(=O)[C@@H](O)CCN)O[C@H](CO)[C@H]1O (some centres unmarked) [ABX5046, Tobra-AHB-F-Gua tetrahydrofuran-2-yl methyl]",0.5
13,"C[C@@H](N)CCNC(=N)NC1[C@@H](O)C(OC2[C@@H](F)[C@H](O[C@H]3OC(CN)[C@@H](O)CC3N)C(N)C[C@H]2NC(=O)[C@@H](O)CCN)O[C@H](CO)[C@H]1O (stereo partly drawn) [ABX5047, Tobra-AHB-F-Gua (R) 3-amino-butyl]",0.25
14,"N=C(NCc1ccncc1)NC1[C@@H](O)C(OC2[C@@H](F)[C@H](O[C@H]3OC(CN)[C@@H](O)CC3N)C(N)C[C@H]2NC(=O)[C@@H](O)CCN)O[C@H](CO)[C@H]1O (some centres unmarked) [ABX5048, Tobra-AHB-F-Gua pyridin-4-yl methyl]",0.5
15,"N=C(NCc1cnc[nH]1)NC1[C@@H](O)C(OC2[C@@H](F)[C@H](O[C@H]3OC(CN)[C@@H](O)CC3N)C(N)C[C@H]2NC(=O)[C@@H](O)CCN)O[C@H](CO)[C@H]1O (some centres unmarked) [ABX5050, Tobra-AHB-F-Gua imidazol-5-yl methyl]",0.5
16,"N=C(NCC1CCOC1)NC1[C@@H](O)C(OC2[C@@H](F)[C@H](O[C@H]3OC(CN)[C@@H](O)CC3N)C(N)C[C@H]2NC(=O)[C@@H](O)CCN)O[C@H](CO)[C@H]1O (some centres unmarked) [ABX5051, Tobra-AHB-F-Gua tetrahydrofuran-3-yl methyl]",0.5
17,"NCC[C@H](O)C(=O)N[C@@H]1C[C@H](N)[C@@H](O[C@H]2O[C@H](CN)[C@@H](O)[C@H](O)[C@H]2O)[C@H](O)[C@H]1O[C@H]1O[C@H](CO)[C@@H](O)[C@H](N)[C@H]1O [Amikacin, amikacin, reference compound]",0.5
